Columns and labels:
human orexin-2 receptor [1] = biological target: T1, human orexin-2 receptor (Homo sapiens (Human), UniProt O43614); experiment: radioligand binding assay, orexin-2 receptor; details: membranes prepared from CHO cells expressing the OX2 receptor; read-out: hOX2R BIND hKi
Experimental: (§1) In a typical experiment the OX1 and OX2 receptor antagonistic activity of the compounds of the present invention was determined in accordance with the following experimental method. For intracellular calcium measurements, Chinese hamster ovary (CHO) cells expressing the rat orexin-1 receptor or the human orexin-2 receptor, are grown in Iscove's modified DMEM containing 2 mM L-glutamine, […], 1% hypoxanthine-thymidine supplement, 100 U/ml penicillin, 100 μg/ml streptomycin and 10% heat-inactivated fetal calf serum (FCS). The cells are seeded at 20,000 cells/well into Becton-Dickinson black 384-well clear bottom sterile plates coated with poly-D-lysine. All reagents were from GIBCO-Invitrogen Corp. The seeded plates are incubated overnight at 37° C. and 5% CO2. Ala-6,12 human orexin-A as the agonist is prepared as a 1 mM stock solution in 1% bovine serum albumin (BSA) and diluted in assay buffer (HBSS containing 20 mM HEPES, 0.1% BSA and 2.5 mM probenecid, pH7.4) for use in the assay at a final concentration of 70 pM. Test compounds are prepared as 10 mM stock solution in DMSO, then diluted in 384-well plates, first in DMSO, then assay buffer. On the day of the assay, cells are washed 3 times with 100 μl assay buffer and then incubated for 60 min (37° C., 5% CO2) in 60 μl assay buffer containing 1 μM Fluo-4AM ester, 0.02% pluronic acid, and 1% BSA. The dye loading solution is then aspirated and cells are washed 3 times with 100 μl assay buffer. 30 μl of that same buffer is left in each well. Within the Fluorescent Imaging Plate Reader (FLIPR, Molecular Devices), test compounds are added to the plate in a volume of 25 μl, incubated for 5 min and finally 25 μl of agonist is added. Fluorescence is measured for each well at 1 second intervals for 5 minutes and the height of each fluorescence peak is compared to the height of the fluorescence peak induced by 70 pM Ala-6,12 orexin-A with buffer in place of antagonist. […] Alternatively, compound potency can be assessed by a radioligand binding assay (described in Bergman et. al. Bioorg. Med. Chem. Lett. 2008, 18, 1425-1430) in which the inhibition constant (Ki) is determined in membranes prepared from CHO cells expressing either the OX1 or OX2 receptor. The intrinsic orexin receptor antagonist activity of a compound which may be used in the present invention may be determined by these assays.

human orexin-2 receptor [2] = biological target: T1, human orexin-2 receptor; experiment: FLIPR Ca2+ Flux Assay, orexin-2 receptor; assay type: cell-based; details: CHO cells expressing the human orexin-2 receptor; agonist 70 pM Ala-6,12 human orexin-A; read-out: hOX2R FLIPR IC50
Experimental: as §1

rat orexin-1 receptor = rat orexin-1 receptor (Rattus norvegicus (Rat), UniProt P56718); experiment: FLIPR Ca2+ Flux Assay, orexin-1 receptor; assay type: cell-based; details: CHO cells expressing the rat orexin-1 receptor; agonist 70 pM Ala-6,12 human orexin-A; read-out: hOX1R FLIPR IC50
Experimental: as §1

Sequence of rat orexin-1 receptor (P56718 whole entry): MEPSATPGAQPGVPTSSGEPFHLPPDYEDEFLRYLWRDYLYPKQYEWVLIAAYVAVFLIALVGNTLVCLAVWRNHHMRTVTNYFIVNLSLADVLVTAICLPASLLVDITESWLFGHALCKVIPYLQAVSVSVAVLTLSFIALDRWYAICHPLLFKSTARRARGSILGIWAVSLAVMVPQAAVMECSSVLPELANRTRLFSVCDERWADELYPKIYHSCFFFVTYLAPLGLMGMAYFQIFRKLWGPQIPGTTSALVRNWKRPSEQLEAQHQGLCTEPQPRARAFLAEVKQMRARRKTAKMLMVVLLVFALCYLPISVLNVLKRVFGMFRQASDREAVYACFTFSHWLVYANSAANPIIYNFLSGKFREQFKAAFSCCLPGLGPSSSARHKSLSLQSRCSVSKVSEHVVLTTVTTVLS
T1 sequence (O43614 whole entry): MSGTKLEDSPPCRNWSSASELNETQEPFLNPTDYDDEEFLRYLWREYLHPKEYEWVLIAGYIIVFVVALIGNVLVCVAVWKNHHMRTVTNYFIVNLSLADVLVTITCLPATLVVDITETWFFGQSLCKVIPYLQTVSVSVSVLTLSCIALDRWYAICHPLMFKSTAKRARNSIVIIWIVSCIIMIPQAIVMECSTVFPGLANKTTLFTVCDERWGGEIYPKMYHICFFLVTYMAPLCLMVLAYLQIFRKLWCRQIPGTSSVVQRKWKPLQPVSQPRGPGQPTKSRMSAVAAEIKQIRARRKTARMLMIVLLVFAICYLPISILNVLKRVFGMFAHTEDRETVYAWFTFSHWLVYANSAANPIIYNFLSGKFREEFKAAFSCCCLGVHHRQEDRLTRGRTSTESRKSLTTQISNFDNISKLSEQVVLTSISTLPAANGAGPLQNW

SMILES: Cc1c(C#N)ccnc1O[C@@H]1CC[C@@H](C)N(C(=O)c2ccccc2Oc2ccccc2)C1 [Example 30, 3-methyl-2-({(3R,6R)-6-methyl-1-[(2-phenoxyphenyl)carbonyl]piperidin-3-yl}oxy)pyridine-4-carbonitrile]
- Ki (human orexin-2 receptor [1]): 0.0023 µM
- IC50 (human orexin-2 receptor [2]): 0.046 µM
- IC50 (rat orexin-1 receptor): > 10 µM

SMILES: Cc1c(C#N)ccnc1O[C@@H]1CC[C@@H](C)N(C(=O)c2ccsc2-c2cscn2)C1 [Example 31, 3-methyl-2-{[(3R,6R)-6-methyl-1-{[2-(1,3-thiazol-4-yl)thiophen-3-yl]carbonyl}piperidin-3-yl]oxy}pyridine-4-carbonitrile]
- Ki (human orexin-2 receptor [1]): 0.0008 µM
- IC50 (human orexin-2 receptor [2]): 0.011 µM
- IC50 (rat orexin-1 receptor): 2.03 µM

SMILES: Cc1c(C#N)ccnc1O[C@@H]1CC[C@@H](C)N(C(=O)c2ccsc2-c2nccs2)C1 [Example 32, 3-methyl-2-{[(3R,6R)-6-methyl-1-{[2-(1,3-thiazol-2-yl)thiophen-3-yl]carbonyl}piperidin-3-yl]oxy}pyridine-4-carbonitrile]
- Ki (human orexin-2 receptor [1]): 0.0007 µM
- IC50 (human orexin-2 receptor [2]): 0.029 µM
- IC50 (rat orexin-1 receptor): 1.88 µM

SMILES: Cc1c(C#N)ccnc1O[C@@H]1CC[C@@H](C)N(C(=O)c2ccc(F)cc2-c2nccs2)C1 [Example 34, 2-{[(3R,6R)-1-{[4-fluoro-2-(1,3-thiazol-2-yl)phenyl]carbonyl}-6-methylpiperidin-3-yl]oxy}-3-methylpyridine-4-carbonitrile]
- Ki (human orexin-2 receptor [1]): 0.0002 µM
- IC50 (human orexin-2 receptor [2]): 0.009 µM
- IC50 (rat orexin-1 receptor): 0.702 µM

SMILES: Cc1c(C#N)ccnc1O[C@@H]1CC[C@@H](C)N(C(=O)c2cc(F)cnc2-c2nccs2)C1 [Example 35, 2-{[(3R,6R)-1-{[5-fluoro-2-(1,3-thiazol-2-yl)pyridin-3-yl]carbonyl}-6-methylpiperidin-3-yl]oxy}-3-methylpyridine-4-carbonitrile]
- Ki (human orexin-2 receptor [1]): 0.0003 µM
- IC50 (human orexin-2 receptor [2]): 0.013 µM
- IC50 (rat orexin-1 receptor): 0.453 µM

SMILES: Cc1c(C#N)ccnc1O[C@@H]1CC[C@@H](C)N(C(=O)c2ccccc2-c2cnn(C)c2)C1 [Example 36, 3-methyl-2-{[(3R,6R)-6-methyl-1-{[2-(1-methyl-1H-pyrazol-4-yl)phenyl]carbonyl}piperidin-3-yl]oxy}pyridine-4-carbonitrile]
- Ki (human orexin-2 receptor [1]): 0.0015 µM
- IC50 (human orexin-2 receptor [2]): 0.02 µM
- IC50 (rat orexin-1 receptor): 2.38 µM

SMILES: Cc1c(C#N)ccnc1O[C@@H]1CC[C@@H](C)N(C(=O)c2sccc2-c2nccs2)C1 [Example 37, 3-methyl-2-{[(3R,6R)-6-methyl-1-{[3-(1,3-thiazol-2-yl)thiophen-2-yl]carbonyl}piperidin-3-yl]oxy}pyridine-4-carbonitrile]
- Ki (human orexin-2 receptor [1]): 0.0012 µM
- IC50 (human orexin-2 receptor [2]): 0.011 µM
- IC50 (rat orexin-1 receptor): 2.27 µM

SMILES: Cc1c(C#N)ccnc1O[C@@H]1CC[C@@H](C)N(C(=O)c2sccc2-c2cscn2)C1 [Example 38, 3-methyl-2-{[(3R,6R)-6-methyl-1-{[3-(1,3-thiazol-4-yl)thiophen-2-yl]carbonyl}piperidin-3-yl]oxy}pyridine-4-carbonitrile]
- Ki (human orexin-2 receptor [1]): 0.0009 µM
- IC50 (human orexin-2 receptor [2]): 0.011 µM
- IC50 (rat orexin-1 receptor): 1.64 µM

SMILES: Cc1c(C#N)ccnc1O[C@@H]1CC[C@@H](C)N(C(=O)c2ccsc2-n2nccn2)C1 [Example 39, 3-methyl-2-{[(3R,6R)-6-methyl-1-{[2-(2H-1,2,3-triazol-2-yl)thiophen-3-yl]carbonyl}piperidin-3-yl]oxy}pyridine-4-carbonitrile]
- Ki (human orexin-2 receptor [1]): 0.0007 µM
- IC50 (human orexin-2 receptor [2]): 0.009 µM
- IC50 (rat orexin-1 receptor): 1.51 µM

SMILES: Cc1nnn(-c2ccccc2C(=O)N2C[C@H](Oc3nccc(C#N)c3C)CC[C@H]2C)n1 [Example 40, 3-methyl-2-{[(3R,6R)-6-methyl-1-{[2-(5-methyl-2H-tetrazol-2-yl)phenyl]carbonyl}piperidin-3-yl]oxy}pyridine-4-carbonitrile]
- Ki (human orexin-2 receptor [1]): 0.0006 µM
- IC50 (human orexin-2 receptor [2]): 0.011 µM
- IC50 (rat orexin-1 receptor): 0.707 µM

SMILES: Cc1nc(C(=O)N2C[C@H](Oc3nccc(C#N)c3C)CC[C@H]2C)c(-c2ccc(F)cc2)s1 [Example 41, 2-{[(3R,6R)-1-{[5-(4-fluorophenyl)-2-methyl-1,3-thiazol-4-yl]carbonyl}-6-methylpiperidin-3-yl]oxy}-3-methylpyridine-4-carbonitrile]
- Ki (human orexin-2 receptor [1]): 0.0046 µM
- IC50 (human orexin-2 receptor [2]): 0.048 µM
- IC50 (rat orexin-1 receptor): 1.2 µM

SMILES: Cc1nc(-c2ccccc2C(=O)N2C[C@H](Oc3nccc(C#N)c3C)CC[C@H]2C)no1 [Example 42, 3-methyl-2-{[(3R,6R)-6-methyl-1-{[2-(5-methyl-1,2,4-oxadiazol-3-yl)phenyl]carbonyl}piperidin-3-yl]oxy}pyridine-4-carbonitrile]
- Ki (human orexin-2 receptor [1]): 0.001 µM
- IC50 (human orexin-2 receptor [2]): 0.012 µM
- IC50 (rat orexin-1 receptor): 0.776 µM

SMILES: Cc1cnn(-c2ccccc2C(=O)N2C[C@H](Oc3nccc(C#N)c3C)CC[C@H]2C)c1 [Example 43, 3-methyl-2-{[(3R,6R)-6-methyl-1-{[2-(4-methyl-1H-pyrazol-1-yl)phenyl]carbonyl}piperidin-3-yl]oxy}pyridine-4-carbonitrile]
- Ki (human orexin-2 receptor [1]): 0.0009 µM
- IC50 (human orexin-2 receptor [2]): 0.01 µM
- IC50 (rat orexin-1 receptor): 0.722 µM

SMILES: Cc1c(C#N)ccnc1O[C@@H]1CC[C@@H](C)N(C(=O)c2cn(C)nc2-c2ccccc2)C1 [Example 45, 3-methyl-2-({(3R,6R)-6-methyl-1-[(1-methyl-3-phenyl-1H-pyrazol-4-yl)carbonyl]piperidin-3-yl}oxy)pyridine-4-carbonitrile]
- Ki (human orexin-2 receptor [1]): 0.0127 µM
- IC50 (human orexin-2 receptor [2]): 0.091 µM
- IC50 (rat orexin-1 receptor): 4.96 µM

SMILES: Cc1c(C#N)ccnc1O[C@@H]1CC[C@@H](C)N(C(=O)c2cn(C)nc2-c2nccs2)C1 [Example 46, 3-methyl-2-{[(3R,6R)-6-methyl-1-{[1-methyl-3-(1,3-thiazol-2-yl)-1H-pyrazol-4-yl]carbonyl}piperidin-3-yl]oxy}pyridine-4-carbonitrile]
- Ki (human orexin-2 receptor [1]): 0.0142 µM
- IC50 (human orexin-2 receptor [2]): 0.111 µM
- IC50 (rat orexin-1 receptor): > 10 µM

SMILES: Cc1nsc(-c2ccccc2)c1C(=O)N1C[C@H](Oc2nccc(C#N)c2C)CC[C@H]1C [Example 47, 3-methyl-2-({(3R,6R)-6-methyl-1-[(3-methyl-5-phenylisothiazol-4-yl)carbonyl]piperidin-3-yl}oxy)pyridine-4-carbonitrile]
- Ki (human orexin-2 receptor [1]): 0.0049 µM
- IC50 (human orexin-2 receptor [2]): 0.082 µM
- IC50 (rat orexin-1 receptor): 2.36 µM

SMILES: COc1ccc(-c2ccccc2C(=O)N2C[C@H](Oc3nccc(C#N)c3C)CC[C@H]2C)cn1 [Example 49, 2-{[(3R,6R)-1-{[2-(6-methoxypyridin-3-yl)phenyl]carbonyl}-6-methylpiperidin-3-yl]oxy}-3-methylpyridine-4-carbonitrile]
- Ki (human orexin-2 receptor [1]): 0.0005 µM
- IC50 (human orexin-2 receptor [2]): 0.015 µM
- IC50 (rat orexin-1 receptor): 0.469 µM

SMILES: Cc1ccc(C(=O)N2C[C@H](Oc3nccc(C#N)c3C)CC[C@H]2C)c(C2CC2)c1 [Example 51, 2-({(3R,6R)-1-[(2-cyclopropyl-4-methylphenyl)carbonyl]-6-methylpiperidin-3-yl}oxy)-3-methylpyridine-4-carbonitrile]
- Ki (human orexin-2 receptor [1]): 0.0006 µM
- IC50 (human orexin-2 receptor [2]): 0.021 µM
- IC50 (rat orexin-1 receptor): 2.1 µM

SMILES: COc1ccc(C(=O)N2C[C@H](Oc3nccc(C#N)c3C)CC[C@H]2C)c(C2CC2)c1 [Example 52, 2-({(3R,6R)-1-[(2-cyclopropyl-4-methoxyphenyl)carbonyl]-6-methylpiperidin-3-yl}oxy)-3-methylpyridine-4-carbonitrile]
- Ki (human orexin-2 receptor [1]): 0.0044 µM
- IC50 (human orexin-2 receptor [2]): 0.056 µM
- IC50 (rat orexin-1 receptor): 7.03 µM

SMILES: Cc1c(C#N)ccnc1O[C@@H]1CC[C@@H](C)N(C(=O)c2ccc(F)cc2C2CC2)C1 [Example 53, 2-({(3R,6R)-1-[(2-cyclopropyl-4-fluorophenyl)carbonyl]-6-methylpiperidin-3-yl}oxy)-3-methylpyridine-4-carbonitrile]
- Ki (human orexin-2 receptor [1]): 0.0016 µM
- IC50 (human orexin-2 receptor [2]): 0.026 µM
- IC50 (rat orexin-1 receptor): 5.78 µM

SMILES: Cc1c(C#N)ccnc1O[C@@H]1CC[C@@H](C)N(C(=O)c2ccc(CO)cc2-c2ccccc2)C1 [Example 54, 2-{[(3R,6R)-1-{[5-(hydroxymethyl)biphenyl-2-yl]carbonyl}-6-methylpiperidin-3-yl]oxy}-3-methylpyridine-4-carbonitrile]
- Ki (human orexin-2 receptor [1]): 0.0032 µM
- IC50 (human orexin-2 receptor [2]): 0.037 µM
- IC50 (rat orexin-1 receptor): 1.39 µM

SMILES: Cc1c(C#N)ccnc1O[C@@H]1CC[C@@H](C)N(C(=O)c2cc(F)ccc2-c2ccccn2)C1 [Example 56]
- Ki (human orexin-2 receptor [1]): 0.0014 µM
- IC50 (human orexin-2 receptor [2]): 0.03 µM
- IC50 (rat orexin-1 receptor): 2.12 µM

SMILES: Cc1nc(C(=O)N2C[C@H](Oc3nccc(C#N)c3C)CC[C@H]2C)c(-c2ccccc2)s1 [Example 57, 3-methyl-2-({(3R,6R)-6-methyl-1-[(2-methyl-5-phenyl-1,3-thiazol-4-yl)carbonyl]piperidin-3-yl}oxy)pyridine-4-carbonitrile]
- Ki (human orexin-2 receptor [1]): 0.0014 µM
- IC50 (human orexin-2 receptor [2]): 0.023 µM
- IC50 (rat orexin-1 receptor): 0.521 µM

Source: patent US9546152B2 (MERCK SHARP & DOHME CORP., priority 2012, dated 2017)
